Structures can show the parent of a compound that is named as a salt.
Biological target: T1, H1 receptor (Cavia porcellus, UniProt P31389)
T1 construct: Strips of guinea pig ileum, 2 cm in length, were set up in an isolated organ bath; from tissue; host or cells: guinea pig ileum strips
Assay: guinea pig ileum screen (antagonism of histamine-induced contraction, pA2)
Format: cell-based
Settings: isolated guinea pig ileum strips, histamine dose response, 20 minutes incubation
Experimental: It is based upon the phenomenon that histamine causes the contraction of guinea pig ileum. Antihistamine blocks this contraction. This test may be performed in the following manner:
Strips of guinea pig ileum, 2 cm in length, were set up in an isolated organ bath in tyrode's solution which had the following composition in […] (NaCl, 136.89; KCl, 2.68; CaCl2, 1.8; MgCl2, 1.05; NaH2 PO4, 0.42; NaHCO3, […] were measured isotonically (Grass FTO3C transducer coupled with silver springs) under one gram resting tension and recorded in a Grass polygraph recorder. Cumulative histamine dose response experiments were then performed before and after treatment of tissues with test compounds (20 minutes incubation). Dose ratios were determined graphically at ED50 response levels from the histamine dose response curves, and Schild plots (Arunlakshana, O. and Schild, H. O. Some quantitative uses of drug antagonists. Br. J. Pharmacol. Chemother. 14: 48-58, 1959) were constructed to determine the pA2 values using inverse regression line analysis (Finney, D. J. Statistical methods in biological assays. Hafner Press, New York, 1964). The pA2 is defined as the negative logarithm of the molar concentratrion of antagonist which would increase the ED50 value by […]. In some experiments, pA2 values were estimated according to the method described by van Rossum (Van Rossum, J. M., Cumulative dose-response curves: Technique for the making of dose-response curves in isolated organs and the evaluation of drug parameters. Arch. Int. Pharmacodyn. Ther. 143: 299-330, 1963) which uses the following relationship: pA2=-log ([B]/(dose ratio-1)), where [B] refers to the molar concentration of antagonists used. The test compounds were prepared in ethanol (0.1% v/v).

[1] = pA2 estimated by the method of Van Rossum
[2] = pA2 by the method of Schild (Schild plots)

T1 sequence (P31389 whole entry): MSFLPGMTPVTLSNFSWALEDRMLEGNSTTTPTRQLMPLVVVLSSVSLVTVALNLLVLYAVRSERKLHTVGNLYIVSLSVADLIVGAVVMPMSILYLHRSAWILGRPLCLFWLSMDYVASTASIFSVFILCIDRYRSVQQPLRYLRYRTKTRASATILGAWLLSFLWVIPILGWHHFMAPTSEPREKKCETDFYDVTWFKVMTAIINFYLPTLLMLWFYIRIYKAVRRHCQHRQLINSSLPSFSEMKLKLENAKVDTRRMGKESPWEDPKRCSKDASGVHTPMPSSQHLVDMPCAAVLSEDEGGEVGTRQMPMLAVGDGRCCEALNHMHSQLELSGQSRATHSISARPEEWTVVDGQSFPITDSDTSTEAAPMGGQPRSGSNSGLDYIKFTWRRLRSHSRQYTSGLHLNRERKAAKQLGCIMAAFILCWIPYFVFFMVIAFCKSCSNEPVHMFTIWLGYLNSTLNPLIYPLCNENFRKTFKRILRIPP

Compound	Kb [1] [nM]	Kb [2] [nM]	further results
CC(C)(C)OC(=O)N1CCC(C(=O)c2nc3ccccc3n2Cc2ccc(F)cc2)CC1 [Example 2 Step a, 1-[[(4-Fluorophenyl)methyl]-1H-benzimidazol-2-yl][1-(t-butyloxycarbonyl)-4-piperidinyl]methanone]	> 100	–	–
O=C(O)CN1CCC(C(=O)c2nc3ccccc3n2Cc2ccc(F)cc2)CC1 [Example 4, 1-[[(4-Fluorophenyl)methyl]-1H-benzimidazol-2-yl][1-(carboxymethyl)-4-piperidinyl]methanone]	2.34	–	–
CCN(CC)C(=O)N1CCC(C(=O)c2nc3ccccc3n2Cc2ccc(F)cc2)CC1 [Example 6, 1-[[(4-Fluorophenyl)methyl]-1H-benzimidazol-2-yl][1-(N,N-diethylcarbamoyl)-4-piperidinyl]methanone]	–	–	pA2 value in the guinea pig ileum screen [1]: 7.7
COC(=O)COCCN1CCC(C(=O)c2nc3ccccc3n2Cc2ccc(F)cc2)CC1 [Example 2, 1-[[(4-Fluorophenyl)methyl]-1H-benzimidazol-2-yl][1-(carbomethoxymethoxyethyl)-4-piperidinyl]methanone]	–	1.78	–
CCOCCn1c(C(=O)C2CCN(C(=O)OC(C)(C)C)CC2)nc2ccccc21 [Example 1 Step a, 1-[[(2-Ethoxy)ethyl]-1H-benzimidazol-2-yl][1-(t-butyloxycarbonyl)-4-piperidinyl]methanone]	603	–	–
CCOCCn1c(C(=O)C2CCN(CCc3ccc(OC)cc3)CC2)nc2ccccc21 [Example 1, 1-[[(2-Ethoxy)ethyl]-1H-benzimidazol-2-yl][1-[2-(4-methoxyphenyl)ethyl]-4-piperidinyl]methanone hydrochloride]	0.407	–	–

The next lines start with results.

Kb [1] [nM]	Kb [2] [nM]	Compound	further results
> 100	–	CC(=O)N1CCC(C(=O)c2nc3ccccc3n2Cc2ccc(F)cc2)CC1 [Example 7, 1-[[(4-Fluorophenyl)methyl]-1H-benzimidazol-2-yl-][1-(acetyl)-4-piperidinyl]methanone]	–
–	2.34	CN1CCC(C(O)c2nc3ccccc3n2Cc2ccc(F)cc2)CC1 (centres unmarked) [Example 29, 1-[[(4-Fluorophenyl)methyl]-1H-benzimidazol-2-yl][1-methyl-4-piperidinyl]methanol]	–
–	0.661	CN1CCC(C(=O)c2nc3ccccc3n2Cc2ccc(F)cc2)CC1 [Example 28, 1[[(4-Fluorophenyl)methyl]-1H-benzimidazol-2-yl][1-methyl-4-piperidinyl]methanone]	–
–	2.4	O=C(CN1CCC(C(=O)c2nc3ccccc3n2Cc2ccc(F)cc2)CC1)Nc1nnn[nH]1 [Example 9, 1-[[(4-Fluorophenyl)methyl]-1H-benzimidazol-2-yl][1-(tetrazoleacetamide)-4-piperidinyl]methanone]	–
10.2	–	O=C(c1nc2ccccc2n1Cc1ccc(F)cc1)C1CCN(C(=O)C(F)(F)F)CC1 [Example 8, 1-[[(4-Fluorophenyl)methyl]-1H-benzimidazol-2-yl][1-(trifluoroacetyl)-4-piperidinyl]methanone]	–
